From article PMC9787607, “A Novel Protocol for the Synthesis of 1,2,4-Oxadiazoles Active against Trypanosomatids and Drug-Resistant Leukemia Cell Lines” (Tropical Medicine and Infectious Disease, 2022)

Columns and labels:
LLC-MK2 cells = assay: Cytotoxicity to LLC-MK2 host cells (MTT); format: cell-based; details: Macaca mulatta, LLC-MK2; 120 h, MTT
Procedure: (§1) LLC-MK2 kidney fibroblasts (ATCC) and RAW 264.7 macrophages (ATCC) were cultivated in culture flasks in complete DMEM with 5% FBS at 37 °C in 5% CO2. The LLC-MK2 cell monolayer was detached by treatment with trypsin-EDTA 0.05% for 5 min at 37 °C. The RAW cell monolayer was detached mechanically. In both cases, the cells were centrifuged at 480× g for 6 min and resuspended in complete DMEM with 5% FBS, and the cell density was determined by counting with trypan-blue dye exclusion on Neubauer chambers before use.
(§2) LLC-MK2 cells were seeded in a 96-well microplate (1.0 × 10^4 cells per well) in complete DMEM with 5% FBS (120 µL per well). After incubation for 24 h at 37 °C in 5% CO2, the medium was renewed, and compounds were added at a range of concentrations in triplicate (50 μM or 100–1 μM). Untreated cells and cells treated with DMEM and 10% DMSO were used as negative and positive controls, respectively. Vehicle control containing DMEM and 0.3% DMSO was maintained for comparison. After incubation for 120 h at 37 °C in 5% CO2, the medium was renewed, and MTT salt solution in PBS was added (3.0 mM, 20 µL per well). After incubation for 2 h at 37 °C in 5% CO2, the supernatant was removed, and MTT formazan was dissolved in DMSO (150 µL per well). Absorbance was measured using a microplate reader at 570 nm.
(§3) The percent cell or parasite viability was calculated by the formula: % viability = [(A − P)/(N − P)] × 100, A = absorbance of specific well, P = positive control, N = negative control. Determination of half-maximal effective concentrations (EC50), calculated by logarithmic regression, and significance analysis (p < 0.05), using ANOVA and Dunnett’s test, by GraphPad Prism 7.0 software. The results are expressed as the mean and standard deviation (SD) of three independent experiments.

[1] = system: T. cruzi amastigotes (Tulahuen C2C4 LacZ strain); assay: microbe, parasite or virus in culture; format: cell-based, Trypanosoma cruzi; details: Trypanosoma cruzi, TULAHUEN; for viability at 50 µM: LLC-MK2, 120 h, screening at 50 μM, 120 h, compared with untreated controls
Procedure: To a monolayer of 1.0 × 10^7 LLC-MK2 cells in a 150 cm^2 culture flask were added 5.0 × 10^7 trypomastigotes of T. cruzi expressing the […] (Tulahuen C2C4 LacZ) in complete DMEM with 2.5% FBS. The infection was allowed to occur for 24 h, the supernatant was removed, and the cell monolayer was washed with PBS. Complete DMEM with 2.5% FBS was renewed every 2 days up to the sixth day after infection. Trypomastigote forms were collected daily from the supernatant between days 7 and 12 after infection, enriched by differential centrifugation (1500× g for 10 min, 5580× g for 20 min), and resuspended in complete DMEM with 5% FBS. Parasite density was determined by counting the mobile trypomastigotes on Neubauer chambers before use.
. The medium was renewed, and trypomastigote forms of T. cruzi (Tulahuen C2C4 LacZ strain, 2.0 × 10^5 parasites per well) were added. After incubation for 24 h at 37 °C in 5% CO2, the cell monolayer was washed with PBS to remove noninternalized parasites. DMEM without phenol red and 5% FBS was added, and infected cells were treated with compounds at a range of concentrations in triplicate (50 μM or 100–1 μM). Untreated infected cells and noninfected LLC-MK2 cells were used as negative and positive controls, respectively. Vehicle control containing DMEM without phenol red and 0.3% DMSO was maintained for comparison. After incubation for 120 h at 37 °C in 5% CO2, a solution containing […] and 0.8% IGEPAL CA-630 in PBS (30 µL per well), followed by further incubation for 2 h at 37 °C in 5% CO2. Absorbance was measured using a microplate reader at 570 nm.
as §3

FEPS (K562/DNR) = assay: MTT cytotoxicity to MDR CML cell line FEPS; format: cell-based, human; details: for RR (relative resistance) FEPS: (EC50 MDR cells)/(EC50 parental cells), FEPS/K562; for EC50: Homo sapiens, K562, 72 h, MTT
Procedure: (§4) The CML cell lines K562, Lucena-1 (K562/VCR), and FEPS (K562/DNR) were cultured in RPMI-1640 medium supplemented with 25 mM HEPES and 2 g L^−1 sodium bicarbonate adjusted to pH 7.4 with NaOH, 100 U penicillin and […] streptomycin. All media were supplemented with 10% FBS. Dr. Vivian M. Rumjanek (Instituto de Bioquímica Médica, UFRJ, Brazil) kindly donated Lucena-1 and FEPS cells. Briefly, K562 cells were exposed to increasing concentrations of the chemotherapeutic drugs vincristine sulfate (VCR) and daunorubicin hydrochloride (DNR) (both from Sigma-Aldrich), as described previously. Lucena-1 (K562/VCR) and FEPS (K562/DNR) cells were cultured in the presence of either 60 nM VCR or 500 nM DNR to maintain the MDR phenotypes. For subcultures, cells were harvested every three days followed by washing with cold FBS, and a final concentration of 2 × 10^4 cells mL^−1 was maintained at 37 °C in 5% CO2.
(§5) Cell viability was determined by the 3-(4,5-dimethylthiazol-2-yl)-2,5-diphenyltetrazolium (MTT) colorimetric assay. CML cells (2 × 10^4 cells·mL^−1) were incubated for 72 h at 37 °C, followed by treatment with compounds at a range of concentrations (100–1 μM). Negative controls were prepared with 0.5% DMSO. An MTT salt solution was added to each well to a final concentration of 0.5 g·L^−1, and plates were incubated at 37 °C in 5% CO2 for 3 h. After centrifugation, 200 μL DMSO was added to dissolve the dark-blue formazan crystals formed by MTT reduction. Absorbance was measured on a microplate reader at 570 nm, which is directly proportional to formazan contents and indicative of living cells.
as §3

K562 = assay: MTT cytotoxicity to CML cell line K562; format: cell-based; details: Homo sapiens, 72 h
Procedure: as §4, §5, §3

[2] = Cytotoxicity to BALB/c mouse total splenocytes (MTT); format: cell-based; details: male, total splenocytes (primary), 100 μM, 48 h, compared to the untreated control (Table S1)
Procedure: BALB/c mouse total splenocytes were harvested from male mice between 6–8 weeks old. After euthanasia, the spleens were removed and macerated in DMEM. After centrifugation, the cells were treated with hemolytic ACK buffer at 37 °C for 5 min. […] After incubation for 48 h at 37 °C in 5% CO2, cell viability was determined after the addition of 20 µL per well of a solution containing MTT salt (3.0 mM) and phenazine metasulphate (0.72 mM). After further incubation for 1 h at 37 °C, the medium was removed, and DMSO was added to dissolve the dark-blue formazan crystals formed by MTT reduction. Absorbance was measured on a microplate reader at 570 nm.
as §3

[3] = Cytotoxicity to LLC-MK2 host cells (MTT); format: cell-based; details: rhesus monkey, screening at 50 μM, 120 h
Procedure: as §1, §2, §3

[4] = system: L. amazonensis promastigotes; assay: Anti-L. amazonensis promastigote assessment (MTT); format: cell-based; details: Leishmania amazonensis; 48 h, MTT; read-out: EC50 L. amazonensis promastigotes
Procedure: Promastigotes of L. amazonensis (MHOM/BR/75/Josefa) were cultured in Schneider’s insect medium (SIM) with 10% FBS. Parasites were harvested at the stationary growth phase for assessment against promastigotes and 24 h after cultures reached the stationary growth phase for infection assays. […]. Complete SIM media and amphotericin B (AmB) at 10 µM were used as negative and positive controls, respectively. A vehicle control containing SIM with 10% SFB media and 0.3% DMSO was maintained for comparison. The final volume of the experiment was 100 µL. After incubation for 48 h at 27 °C, MTT salt solution in PBS was added (3.0 mM, 20 µL per well). After incubation for 2 h at 27 °C, the MTT formazan was dissolved by adding 120 µL of solubilizing buffer (50% isopropanol, 40% acetate buffer pH 5.4, 10% Triton-X). Absorbance was measured using a microplate reader at 570 nm.
as §3

Lucena-1 (K562/VCR) = assay: cells; format: cell-based, human; details: for RR (relative resistance) Lucena-1: (EC50 MDR cells)/(EC50 parental cells), Lucena-1/K562; for EC50: Homo sapiens, Lucena 1, 72 h, read-out: EC50 Lucena-1
Procedure: as §4, §5, §3

[5] = LLC-MK2 cells (kidney fibroblasts)

Row | Compound | EC50 (LLC-MK2 cells) [µM] | viability at 50 µM [1] [%] | EC50 ([1]; in LLC-MK2, 120 h, read-out: EC50 T. cruzi intracellular amastigotes) [µM] | RR (relative resistance) FEPS (FEPS (K562/DNR)) | EC50 (FEPS (K562/DNR)) [µM] | EC50 (K562) [µM] | viability at 48 h, 100 µM [2] [%] | viability at 120 h, 50 µM [3, 5] [%] | EC50 [4] [µM] | RR (relative resistance) Lucena-1 (Lucena-1 (K562/VCR)) | EC50 (Lucena-1 (K562/VCR)) [µM] | melting point [°C] | viability at 120 h, 50 µM [3] [%]
1 | O=C(Cn1ccnc1[N+](=O)[O-])NCc1ccccc1 [Benznidazole, reference compound] | > 100 | 23.2 ± 1.4 | 1.5 ± 0.2 |  |  |  |  |  |  |  |  |  | 
2 | COc1cc(-c2noc(/C=C/c3ccco3)n2)cc(OC)c1OC [Compound 25, (E)-3-(3,4,5-trimethoxyphenyl)-5-[2-(fur-2-yl)vinyl]-1,2,4-oxadiazole] |  | 79.5 ± 5.5 |  | 0.74 | 53.7 ± 3.6 | 72.8 ± 9.1 | 63.7 ± 4.7 | 73.5 ± 1.7 | > 100 | 1.05 | 76.6 ± 6.1 | 144 to 146 | 
3 | C(=C\c1nc(-c2ccccc2)no1)/c1ccco1 [Compound 16, (E)-3-phenyl-5-[2-fur-2-yl-vinyl]-1,2,4-oxadiazole] |  | 83 ± 3.7 |  | 1.03 | 54.7 ± 1.7 | 52.8 ± 17.7 | 53.5 ± 5.2 | 89.2 ± 1.4 | 47.1 ± 3.7 | 1.23 | 65 ± 9.6 | 83 to 85 | 
4 | COc1cccc(/C=C/c2nc(-c3ccccc3)no2)c1 [Compound 10, (E)-3-phenyl-5-[2-(3-methoxyphenyl)vinyl]-1,2,4-oxadiazole] |  | 77.7 ± 6.3 |  |  | > 100 | > 100 | 85.4 ± 4 | 86.6 ± 3.6 | 50.8 ± 6.3 |  | > 100 | 88 to 90 | 
5 | C(=C\c1nc(-c2ccccc2)no1)/c1ccc2c(c1)OCO2 [Compound 13, (E)-3-phenyl-5-[2-(3,4-methylenedioxy-phenyl)vinyl]-1,2,4-oxadiazole] |  | 72 ± 3.7 |  | 0.74 | 68.5 ± 8.7 | 92.3 ± 4.2 | 98.8 ± 5.1 | 75.9 ± 1.3 | > 100 | 0.50 | 46.5 ± 1.9 | 157 to 159 | 
6 | C(=C\c1cccs1)/c1nc(-c2ccccc2)no1 [Compound 17, (E)-3-phenyl-5-[2-thiophen-2-yl-vinyl]-1,2,4-oxadiazole] |  | 69.6 ± 6.3 |  | <0.56 | 55.7 ± 17.2 | > 100 | 99 ± 8.4 |  | 77.6 ± 6.3 | <0.72 | 71.9 ± 0.6 | 93 to 95 | 86.2 ± 7.1
